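Five concentrations, 48 hours, 96-well plates. At the GI50, growth is halved. Definition used: TGI = concentration required for complete inhibition of growth.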
Assays:
Test in all cases: growth of human tumour cells (NCI), 48 h
CCRF-CEM leukemia = tested on: CCRF-CEM leukemia
DU-145 prostate = tested on: DU-145 prostate
OVCAR-3 ovarian = tested on: OVCAR-3 ovarian
SK-MEL-2 melanoma = tested on: SK-MEL-2 melanoma
T-47D breast = tested on: T-47D breast
HCT-15 colon = tested on: HCT-15 colon
SK-MEL-5 melanoma = tested on: SK-MEL-5 melanoma
SNB-19 CNS = tested on: SNB-19 CNS
HS 578T breast = tested on: HS 578T breast
MDA-MB-231 breast = tested on: MDA-MB-231 breast

Compound	GI50 (CCRF-CEM leukemia) [µM]	TGI (CCRF-CEM leukemia) [µM]	GI50 (DU-145 prostate) [µM]	TGI (DU-145 prostate) [µM]	GI50 (OVCAR-3 ovarian) [µM]	TGI (OVCAR-3 ovarian) [µM]	GI50 (SK-MEL-2 melanoma) [µM]	TGI (SK-MEL-2 melanoma) [µM]	GI50 (T-47D breast) [µM]	TGI (T-47D breast) [µM]	TGI (HCT-15 colon) [µM]	TGI (SK-MEL-5 melanoma) [µM]	TGI (SNB-19 CNS) [µM]	GI50 (SK-MEL-5 melanoma) [µM]	GI50 (SNB-19 CNS) [µM]	GI50 (HCT-15 colon) [µM]	GI50 (HS 578T breast) [µM]	TGI (HS 578T breast) [µM]	GI50 (MDA-MB-231 breast) [µM]	TGI (MDA-MB-231 breast) [µM]
O=C1Nc2ccc(Cl)cc2/C1=N/c1nc(-c2ccc(Cl)cc2)cs1	2.28	> 100	1.42	2.79	1.3	4.56	1.93	4.85	0.938	5.8										
CC(C)(C)c1ccc(OCCOCCOc2ccc(C(C)(C)C)cc2S(N)(=O)=O)c(S(N)(=O)=O)c1		> 100				> 100		> 100			> 100	> 100	> 100							
O=C(/C=C(\[O-])c1ccccc1)CCCCCCC(=O)/C=C(\[O-])c1ccccc1.O=C(/C=C(\[O-])c1ccccc1)CCCCCCC(=O)/C=C(\[O-])c1ccccc1.O=C(/C=C(\[O-])c1ccccc1)CCCCCCC(=O)/C=C(\[O-])c1ccccc1.[Y+3].[Y+3]					> 50	> 50	> 50	> 50				> 50	> 50	34.8	19					
COc1ccc([C@@H]2[C@@H](Oc3ccccc3)C(=O)N2c2cc(OC)c(OC)c(OC)c2)cc1F	0.204	> 100	0.378	> 100	0.0511	> 100	0.447	> 100			> 100	1.49	> 100	0.0504	0.175	0.155	0.0864	77.9	0.298	> 100
CCCCC(C(=O)C(=O)Nc1ccccc1CC)C(=O)C(C)C (stereo unspecified)		> 100				> 100		> 100			> 100	> 100	> 100							
CN(C)c1ccc(/C=c2/sc3nc(=O)c(-c4ccccc4NC(=O)C(F)(F)F)nn3c2=O)cc1		> 100				> 100		> 100				> 100	> 100							
O=C1c2ccccc2C2(O)N(c3ccccc3)C(=S)N(c3ccccc3)C12O (stereo unspecified)		> 100				> 100		> 100			> 100	> 100	> 100							
ON1CCc2c([nH]c3ccccc23)C1c1ccc(Cl)cc1 (stereo unspecified)		93.8				74.5		64.5					> 100							
O=C(CCN1CCOCC1)Nc1ccc(Cn2nnc3c2C(=O)c2nnn(Cc4ccc(NC(=O)CCN5CCOCC5)cc4)c2C3=O)cc1	0.34	> 100	18.6	> 52.4	0.333	1.39					> 100	1.71	3.07	0.59	1.56	> 100	3.03	24.9		
C/C(=C\c1ccccc1)C(O)C(=O)c1nc2ccc(Cl)cc2[nH]c1=O (stereo unspecified)		78.9				> 100		> 100			> 100	> 100	> 100							
CCOC(=O)C1C(NC(N)=O)N(Cc2ccccc2)C(=O)N1Cc1ccccc1 (stereo unspecified)		> 100				> 100		> 100			> 100	> 100	> 100							
CN(C)c1ccc(/C=N/N=C(\C#N)[S][Sn]([Cl])([c]2ccccc2)[c]2ccccc2)cc1	0.281	1.05			1.3	2.59	1.74	3.43			2.73	3.37	3.65	1.66	1.99	1.26	2.7	9.19	1.54	3.19
CCCCCNC(=O)CCCCCCCCCCCNC(=O)CCCCCCCCCCN1C=CC(=CC=C2C=CC(=O)C=C2)C=C1		> 100				> 100					> 100	> 100	> 100							
O=[N+]([O-])c1ccc(/C=C/c2ccc(/C=C/c3ccc([N+](=O)[O-])cc3[N+](=O)[O-])cc2)c([N+](=O)[O-])c1		> 100				> 100		> 100			> 100	> 100								
O=C(O)c1cn(C2CC2)c2cc(N3CCN(C(=O)N(c4ccccc4)c4nc(-c5ccccc5)cs4)CC3)c(F)cc2c1=O	0.276	> 100	0.521	> 100			0.554	2.92	2.3	> 100	> 100	> 100	> 100	0.717	0.416	0.308	0.393	> 100		
Cc1ccccc1NC(=O)C1C(=O)N(c2ccccc2C)C(=O)/C1=N\NC(N)=O (stereo unspecified)		> 100				> 100		> 100			> 100	> 100	> 100							
O=S(=O)(Nc1ccccc1)c1ccc(C2CC3(Cl)C(Cl)=C(Cl)C2(Cl)C3(Cl)Cl)cc1 (stereo unspecified)	3.24	11.9	3.58	10.1	2.18	4.13	2.23	4.16	2.54	6.82	10.2	3.74	13.6	1.93	3.74	3.13			3.44	11.3
C=CCN(CC=C)Cc1c[nH]c2ccccc12	56.9	> 100					15.3	38.3	> 100	> 100	> 100	23.8	> 100	6	> 100	32.8			23.4	54.8
COc1cc2c(cc1OCCN1CCN(CCN3C(=O)c4cccc5cccc(c45)C3=O)CC1)N=C[C@@H]1CCCN1C2=O	19.9	39	16.9	30.6	15.8	33.5	24.6	51.1			31.1	29.5	53.7	16	29.9	15.8	24.9	54.4	19.9	39.8
COc1ccc2cc3n(c(=O)c2c1)CCc1c-3cc(OC)c(OC)c1OC		> 100				> 100		> 100			> 100	> 100	> 100							

Compound	GI50 (CCRF-CEM leukemia) [µM]	TGI (CCRF-CEM leukemia) [µM]	GI50 (DU-145 prostate) [µM]	TGI (DU-145 prostate) [µM]	GI50 (OVCAR-3 ovarian) [µM]	TGI (OVCAR-3 ovarian) [µM]	GI50 (SK-MEL-2 melanoma) [µM]	TGI (SK-MEL-2 melanoma) [µM]	GI50 (T-47D breast) [µM]	TGI (T-47D breast) [µM]	TGI (HCT-15 colon) [µM]	TGI (SK-MEL-5 melanoma) [µM]	TGI (SNB-19 CNS) [µM]	GI50 (SK-MEL-5 melanoma) [µM]	GI50 (SNB-19 CNS) [µM]	GI50 (HCT-15 colon) [µM]	GI50 (HS 578T breast) [µM]	TGI (HS 578T breast) [µM]	GI50 (MDA-MB-231 breast) [µM]	TGI (MDA-MB-231 breast) [µM]
COc1cc2c(Oc3ccc(-c4cnc(Nc5ccc(F)cc5)n(C)c4=O)cc3F)ccnc2cc1OCCCN1CCOCC1	3.04	> 100	1.56	3.17	1.64	3.15	1.53	3.19			2.75	2.77	4.52	1.45	2.03	1.18	0.933	3.4	1.4	2.93
COC(=O)N/N=C(\C)c1sc(-c2nc(C)c(/C(C)=N/NC(=O)OC)s2)nc1C		> 100				> 100		> 100			> 100	> 100	> 100							
CCCCCCCCCCN=C(N)c1ccc(N2CCN(c3ccc(C(N)=NCCCCCCCCCC)cc3)CC2)cc1			3.3	26.1	2.23	8.57	7.74	> 50	5.91	18.8	> 50	> 50	19.1	2.19	3.02	14.1			2.95	17.9
COc1ccc(C(C)Nc2cc(OC)c(OC)c(OC)c2)cc1 (stereo unspecified)		> 100				6.99		81.1			> 100	> 100	> 100							
O=C1c2ccccc2-c2c1c1c(O)cccc1n2Cc1ccccc1			11.9	64.7	4.17	17.3	39.7	> 100	7.8	90.2	> 100	24.7	82.5	5.62	14.4	27.5	10.3	32.8	> 100	> 100
CCN1CCN(CC(=O)Nc2nc3ccc(NCc4ccc(Br)cc4)cc3s2)CC1			5.14	> 100			1.95	3.63	1.75	4.55		3.08	6.93	1.68	2.6		1.77	4.81	1.89	4.15
N#Cc1c(CC(=O)O)cc(=O)n2c1[nH]c1ccccc12						> 100		> 100			> 100	> 100	> 100							
CNS(=O)(=O)NNS(=O)(=O)c1ccc(C)cc1		> 100				> 100		> 100				> 100	> 100							
O=C1c2ccccc2N1C(=O)c1ccccc1[N+](=O)[O-]		> 100		> 100		88.4		> 100		> 100	> 100	> 100	> 100					> 100		
c1cc(OCCCCCOc2cccc(-c3nc4ccccc4[nH]3)c2)cc(-c2nc3ccccc3[nH]2)c1			3.27	> 100	1.53	> 100	2.05	5.67	0.458	3.18	> 100	3.08	> 100	1.68	2.85	2.71	2.56	8.51	4.08	30.9
CC(C)CCCC(C)C1CCC2C3CC([N+](=O)[O-])=C4CC(O)CCC4(C)C3CCC12C (stereo unspecified)		42.9				49.4		29			33.6									
O=C(CC1(O)C(=O)Nc2c(Cl)ccc(Cl)c21)c1ccc(Cl)cc1 (stereo unspecified)						47.4		86.4			> 100		> 100							
COc1cc(/C=C/c2cc(/C=C/c3ccc(O)c(OC)c3)n(C(=O)Nc3ccc(C)cc3)n2)ccc1O			0.448	2.32	0.417	1.99	0.681	3.97	1.14	3.33	5.27	1.21	9.11	0.306	0.873	0.384	0.278	0.689	1.46	23
O=c1c2cc(Br)ccc2nc(CNc2ccccc2)n1-c1ccccc1		13.7				48.5		62.3			> 47.9	38.1	> 72.1							
OC[C@H]1C[C@](O)(c2ccc(F)cc2)[C@@H](c2ccc(F)cc2)O1	> 100	> 100	> 100	> 100	> 100	> 100					> 100	> 100	> 100	> 100	> 100	> 100	44.2	> 100	> 100	> 100
Cc1ccccc1NC(=O)CC(=O)NNCC(=O)Nc1nnc(-c2ccccc2)s1						> 100		> 100			> 100	> 100	> 100							
Nc1ccccc1C(=O)/C=C/c1ccccc1O		> 100				> 100		> 100				> 100	> 100							
CN(C)[C@@H]1C(=O)C(C(=O)NCc2nc3[nH]cnc(=S)c3[nH]2)=C(O)[C@@]2(O)C(=O)C3=C(O)c4c(O)cccc4[C@@](C)(O)[C@H]3C[C@@H]12	1.02	> 100	4.43	> 100	2.52	> 100	> 100	> 100	1.95	> 100	> 100	> 100	> 100	24.8	> 100	5.66	> 100	> 100		
CN(C)c1ccc(/C=C2\CCc3ccccc3C2=O)cc1Br		> 100				> 100		> 100			> 100	76.8	> 100							
CC(=O)NC(CCCNC(=O)OCc1ccccc1)C(=O)NCc1ccccc1 (stereo unspecified)		> 100				> 100		> 100			> 100	> 100	> 100							

Reference: PubChem BioAssay (NCI)
